Measured values published in publication PMC10149367, “The ferroptosis inducing compounds RSL3 and ML162 are not direct inhibitors of GPX4 but of TXNRD1” (Redox Biology, 2023).

Tests used:
[1] = test system: malondialdehyde (MDA) and Ptgs2 mRNA levels; design: method as in PMID 32732975; settings: hemochromatosis mouse model; reversed by Ferrostatin-1; cited from earlier work
[2] = target: T1, TXNRD1 (Homo sapiens, UniProt Q16881); assay: TXNRD1 activity assay, pure enzyme (Fig. 1A); assay type: biochemical
T1 construct: made in house
T1 sequence (Q16881 1-499 isoform Q16881-5): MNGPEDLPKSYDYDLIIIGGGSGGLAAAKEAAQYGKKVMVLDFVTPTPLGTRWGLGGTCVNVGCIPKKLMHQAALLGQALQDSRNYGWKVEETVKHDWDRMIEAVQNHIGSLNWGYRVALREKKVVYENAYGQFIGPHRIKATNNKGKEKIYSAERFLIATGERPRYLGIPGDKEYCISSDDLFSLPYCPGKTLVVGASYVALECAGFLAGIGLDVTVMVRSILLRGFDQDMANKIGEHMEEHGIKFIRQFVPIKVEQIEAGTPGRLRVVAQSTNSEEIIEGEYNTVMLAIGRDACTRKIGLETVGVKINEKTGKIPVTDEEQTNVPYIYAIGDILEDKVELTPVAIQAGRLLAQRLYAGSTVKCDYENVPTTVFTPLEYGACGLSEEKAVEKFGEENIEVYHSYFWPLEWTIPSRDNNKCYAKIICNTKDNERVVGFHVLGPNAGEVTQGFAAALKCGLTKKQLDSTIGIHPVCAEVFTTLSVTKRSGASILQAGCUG
Experimental: (§1) Recombinant human proteins—Recombinant human selenoprotein GPX and TXNRD isoenzymes as well as recombinant human GR were cloned, expressed, and purified as described previously [[26], [27], [28]].
(§2) TXNRD1 selenite and DTNB assays were run as previously described [[26], [27], [28]]. Dose-response curves and IC50s were generated using Excel and GraphPad Prism. Briefly, initial slopes of NADPH consumption were normalized to DMSO controls and IC50s were calculated using log(inhibitor) vs. response—Variable slope (four parameters).

[3] = test system: GPX4; design: method as in PMID 33812801; settings: cited from earlier work
[4] = target: T2, GPX1 (Homo sapiens, UniProt P07203); assay: GPX1 activity assay, pure enzyme (NADPH consumption, cumene hydroperoxide); assay type: biochemical; settings: for IC50: recombinant GPX1, 30 min preincubation, read-out: IC50 GPX1 inhibition
T2 construct: made in house
T2 sequence (P07203 1-203): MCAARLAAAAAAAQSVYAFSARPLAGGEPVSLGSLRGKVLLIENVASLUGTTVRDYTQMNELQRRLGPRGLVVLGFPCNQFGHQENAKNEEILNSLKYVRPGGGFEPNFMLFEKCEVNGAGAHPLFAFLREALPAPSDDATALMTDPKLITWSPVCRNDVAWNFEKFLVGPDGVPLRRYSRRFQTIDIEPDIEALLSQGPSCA
Experimental: as §1
(§3) Biochemical assays—GPX assays were run as previously described [[26], [27], [28]] in a clear medium-binding 96-well SpectraPlates (PerkinElmer). Briefly, 198 μL of 10 nM GPX1 or 200 nM GPX4 were incubated with 2 μL compounds or DMSO in TES buffer (50 mM Tris-HCl, 2 mM EDTA (pH 7.5), 150 mM NaCl) with BSA at room temperature for 30 min. Then, 40 μL of master mix (100 nM GR, 1 mM GSH, 0.5 mM NADPH in TES buffer) was added. To start the reaction, 10 μL of Cumene hydroperoxide ([0.5 mM] in 50% EtOH) was then added. Absorbance at 340 nm was measured using a Tecan Infinite® M Nano microplate reader every 20 s for 30 min. Four replicates were run, unless otherwise stated.

[5] = target: T3, GPX4 (Homo sapiens, UniProt P36969); assay: nano differential scanning fluorimetry, GPX4; assay type: binding; settings: 100 μM compound; DMSO control 51.7 °C
T3 construct: made in house
T3 sequence (P36969 1-170 isoform P36969-2): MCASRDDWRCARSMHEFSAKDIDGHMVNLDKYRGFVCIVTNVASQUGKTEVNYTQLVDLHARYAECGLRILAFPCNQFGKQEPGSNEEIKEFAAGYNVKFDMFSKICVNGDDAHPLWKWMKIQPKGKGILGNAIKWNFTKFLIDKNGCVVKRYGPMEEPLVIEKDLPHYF
Experimental: Nano differential scanning fluorimetry—Real-time monitoring of fluorescence emission at 330 nm and 350 nm (excitation wavelength: 280 nm) and backscattering absorbance of GPX4 and TXNRD1 samples in the presence of compound was performed using a NanoTemper Prometheus NT.48 instrument. First, 0.25 mg/mL enzyme was incubated with 100 μM compound or DMSO for 15 min at room temperature. Standard capillaries were used, and temperature was increased from 25 to 95 °C with a ramp rate of 4.0 °C/min. Three biological replicates were carried out for each condition, and their means and standard deviations are depicted.

[6] = target: T1, TXNRD1; assay: TXNRD1 orthogonal assays (selenite reduction, DTNB reduction; Extended Data Fig. 2); assay type: biochemical; settings: selenite and DTNB assays
Experimental: as §2
Supplementary Data Extended Data Set
(Extended Data Fig. 2A, left panel). Measuring inhibition of TXNRD1 activity, as a complement to the analyses shown in the main text of this article, we also assessed this using two orthogonal approaches: 1. by the measurement of NADPH consumption coupled to direct selenite reduction of TXNRD1, either through the decrease in absorbance at 340 nm or decrease in its fluorescence, and 2. measuring TXNRD1-catalyzed DTNB reduction based upon quantification of TNB- anions absorbing at 412 nm as formed upon TXNRD1-catalyzed reduction of the disulfide in DTNB. Using these assays, we could confirm that the RSL3 inhibition of TXNRD1 was not an artifact due to specific assay conditions, with both RSL3 and ML162 showing complete inhibition of TXNRD1 at the higher end of the concentrations assessed here (2.8 ± 0.9% and 5.8 ± 0.9% remaining activity with just 5 µM of RSL3 and […]
ML162 (Extended Data Fig. 2A, middle and right panels, and 2B). […]
any inhibition of TXNRD1 in any of the assays. […]
µM, respectively (Extended Data Fig. 2B). Like with TRi-1 and TRi-2, inhibition of both TXNRD1 and TXNRD2 by RSL3 and ML162 was essentially dependent on pre-reduction of the enzyme by NADPH in order to yield potent and complete inactivation. Both compounds […]
ML162 in the absence of NADPH and subsequently assayed for activity; however, this could also be due to carry-over of the compounds to the NADPH dependent enzyme activity assay.
Because the reduction step with NADPH reduces a selenenylsulfide at the C-terminal active […]
of the selenolate at the C-terminal active site of the NADPH-reduced enzyme. That some […]
compounds might also bind some other additional site(s) in the enzyme. That notion is further strengthened by the fact that thermostability of TXNRD1 was also affected at higher concentrations of compounds when incubated with the enzyme in the absence of NADPH (see […]
dose-response curve fit to the average of n = 3 technical replicates. […]
well (middle left panel) and 1536-well format (not shown), as well as a DTNB assay (middle […]
TXNRD2 by RSL3 (left panel), ML162 (middle left panel), TRi-1 (middle right panel), and TRi-2 (right panel) are modulated by NADPH pre-treatment; Data are presented as mean ± s.d.; Four-parameter dose-response curve fit to the average of n = 3 technical replicates (n = 2

[7] = target: T3, GPX4; assay: GPX4 activity assay, pure enzyme (NADPH consumption, cumene hydroperoxide); assay type: biochemical; settings: for IC50: recombinant GPX4, 30 min preincubation, read-out: IC50 GPX4 inhibition
Experimental: as §1, §3

[8] = target: T4, TXNRD1 (Homo sapiens, UniProt Q16881); assay: Cellular TXNRD1 assay with RX1 probe in A549 cells; assay type: cell-based
T4 construct: RX1 probe that specifically reports upon TXNRD1 enzymatic activity in live cells; endogenous in cells; host or cells: A549
T4 sequence (Q16881 151-649 limits assumed): T1 sequence (Q16881 1-499 isoform Q16881-5)
Experimental: Cellular TXNRD1 assay—20,000 or 10,000 A549 cells (for 4 h or 12 h and 24 h compound incubation respectively) were seeded in 96-well plates (microplates, 96 well, F-bottom, black, clear bottom, ViewPlateTM-96 F TC, PerkinElmer), in a total volume of 100 μL full DMEM (supplemented with 10% FBS and 100 nM Na2SeO3). […] The cells were subsequently incubated for the respective mentioned time, washed once with full DMEM and fresh, full DMEM, containing 75 μM RX1 and 0.75% DMSO, was added and the first fluorescent measurement was conducted immediately (timepoint = 0) using a Tecan Infinite M200 plate reader (ex/em 355/520). To follow the kinetic activation of RX1, a fluorescent measurement was done every hour for 6 h. Between measurements, cells were stored at 37 °C and 5% CO2. As a control, cells treated with compounds, but not with RX1, just the respective DMSO content, were used for background fluorescent. To determine how the cells were viable throughout the RX1 assay, the control cells were used for a viability measurement, using CellTiter-Glo® Luminescent Cell Viability Assay, after the final fluorescent measurement. For final data analysis, raw data was processed using Microsoft Excel and GraphPad Prism. In brief, the slope of the activated RX1 fluorescence increase was in each case calculated and normalized, using the viability measurement of the control cells.

[9] = test system: A549 cells; assay: A549 viability in cellular TXNRD1 (RX1) experiments; settings: A549, 4 h, Extended Data Fig. 3A
Experimental: Cellular TXNRD1 assay—20,000 or 10,000 A549 cells (for 4 h or 12 h and 24 h compound incubation respectively) were seeded in 96-well plates (microplates, 96 well, F-bottom, black, clear bottom, ViewPlateTM-96 F TC, PerkinElmer), in a total volume of 100 μL full DMEM (supplemented with 10% FBS and 100 nM Na2SeO3). The cells were incubated for 16 h at 37 °C and 5% CO2, followed by media change and addition of indicated compounds at respective concentrations (0.1 μM–20 μM), including 0.6% DMSO. The cells were subsequently incubated for the respective mentioned time, washed once with full DMEM and fresh, full DMEM, containing 75 μM RX1 and 0.75% DMSO, was added and the first fluorescent measurement was conducted immediately (timepoint = 0) using a Tecan Infinite M200 plate reader (ex/em 355/520). To follow the kinetic activation of RX1, a fluorescent measurement was done every hour for 6 h. Between measurements, cells were stored at 37 °C and 5% CO2. As a control, cells treated with compounds, but not with RX1, just the respective DMSO content, were used for background fluorescent. To determine how the cells were viable throughout the RX1 assay, the control cells were used for a viability measurement, using CellTiter-Glo® Luminescent Cell Viability Assay, after the final fluorescent measurement. For final data analysis, raw data was processed using Microsoft Excel and GraphPad Prism. In brief, the slope of the activated RX1 fluorescence increase was in each case calculated and normalized, using the viability measurement of the control cells.
Extended Data Figure 3: A549 cytotoxicity in cellular TXNRD1 experiments following final
A) Cell viability following 4-hour incubation with
compounds; B) Viability following 12-hour incubation with compounds; C) Viability
following 24 -hour incubation with compounds. The cell viability in was in each case measured
using the Cell Quanti-BlueTM Cell Viability Assay Kit and the data are presented as mean ±
s.d. of n = 3 biological replicates, each containing n = 3 technical replicates.

[10] = recombinant selenoprotein, pure enzyme system

Structure (SMILES): CC(=O)OC[C@H]1O[C@@H]([S-])[C@H](OC(C)=O)[C@@H](OC(C)=O)[C@@H]1OC(C)=O.CCP(CC)CC.[Au+] [Auranofin, auranofin]
- Hepatic malondialdehyde (MDA) and Ptgs2 mRNA levels [1]: increase in hepatic malondialdehyde (MDA)
- IC50 ([2]; recombinant TXNRD1, Fig. 1A assay conditions, read-out: IC50 TXNRD1 inhibition): ~19 µM
- Effect on GPX4 expression levels [3]: decrease GPX4 expression levels
- IC50 [4]: 4.7 µM

Structure (SMILES): Cc1onc(C(=O)N2CCN(C(c3ccc(Cl)cc3)c3ccc(Cl)cc3)CC2)c1[N+](=O)[O-] [ML210]
- Tm of GPX4 (nanoDSF) [5]: 52.1 °C
- Inhibition of GPX1 [4, 10]: neither RSL3, ML162, nor ML210 inhibited either GPX isoenzyme
- Inhibition of TXNRD1 in any of the assays [6]: did not show any inhibition of TXNRD1
- Inhibition of GPX4 [7, 10]: neither RSL3, ML162, nor ML210 inhibited either GPX isoenzyme
- Effect on cellular TXNRD1 activity (RX1) ([8]; A549, 20 μM): slightly suppressed TXNRD1 activity
- Effect on cellular TXNRD1 activity (RX1) ([8]; A549, 0.5–1 μM): tendency to increase the TXNRD1 activity
- Effect on cellular TXNRD1 activity (RX1) at 4 h ([8]; A549, 4 h incubation, RSL3 and ML162 at 1 μM or higher): increase in TXNRD1 activity
- Effect on cell viability at 4 h [9]: no overt effects on viability

Structure (SMILES): OC[C@H]1O[C@H]([S-])[C@H](O)[C@@H](O)[C@@H]1O.[Au+] [aurothioglucose]
- Specificity among GPX1, GPX4, GR and TXNRD1 ([2]; pure enzyme systems, Fig. 1A lower panels): only showed TXNRD1 inhibition

Structure (SMILES): O=C(O)CC(S)C(=O)O (centres unmarked) [mercaptosuccinic acid]
- IC50 [4]: < 10 µM
- IC50 [7]: < 10 µM

Structure (SMILES): [Cl][Hg][Cl] [mercuric chloride]
- IC50 [4]: < 10 µM
- IC50 [7]: < 10 µM
